Measurements published in patent US20070122451A1, “Biogically non-degradable peptides, angiostensin converting enzyme inhibitor, drug and functional food” (Calpis Co., Ltd., priority 2003, published 2007).
pIC50: −log10 of the molar value. Peptide text beside a SMILES is read from it.

Biological target: T1, ACE derived from bovine lung (Bos taurus, UniProt P12820)
T1 construct: ACE derived from bovine lung; host or cells: bovine lung tissue
T1 sequence (P12820 29-1306): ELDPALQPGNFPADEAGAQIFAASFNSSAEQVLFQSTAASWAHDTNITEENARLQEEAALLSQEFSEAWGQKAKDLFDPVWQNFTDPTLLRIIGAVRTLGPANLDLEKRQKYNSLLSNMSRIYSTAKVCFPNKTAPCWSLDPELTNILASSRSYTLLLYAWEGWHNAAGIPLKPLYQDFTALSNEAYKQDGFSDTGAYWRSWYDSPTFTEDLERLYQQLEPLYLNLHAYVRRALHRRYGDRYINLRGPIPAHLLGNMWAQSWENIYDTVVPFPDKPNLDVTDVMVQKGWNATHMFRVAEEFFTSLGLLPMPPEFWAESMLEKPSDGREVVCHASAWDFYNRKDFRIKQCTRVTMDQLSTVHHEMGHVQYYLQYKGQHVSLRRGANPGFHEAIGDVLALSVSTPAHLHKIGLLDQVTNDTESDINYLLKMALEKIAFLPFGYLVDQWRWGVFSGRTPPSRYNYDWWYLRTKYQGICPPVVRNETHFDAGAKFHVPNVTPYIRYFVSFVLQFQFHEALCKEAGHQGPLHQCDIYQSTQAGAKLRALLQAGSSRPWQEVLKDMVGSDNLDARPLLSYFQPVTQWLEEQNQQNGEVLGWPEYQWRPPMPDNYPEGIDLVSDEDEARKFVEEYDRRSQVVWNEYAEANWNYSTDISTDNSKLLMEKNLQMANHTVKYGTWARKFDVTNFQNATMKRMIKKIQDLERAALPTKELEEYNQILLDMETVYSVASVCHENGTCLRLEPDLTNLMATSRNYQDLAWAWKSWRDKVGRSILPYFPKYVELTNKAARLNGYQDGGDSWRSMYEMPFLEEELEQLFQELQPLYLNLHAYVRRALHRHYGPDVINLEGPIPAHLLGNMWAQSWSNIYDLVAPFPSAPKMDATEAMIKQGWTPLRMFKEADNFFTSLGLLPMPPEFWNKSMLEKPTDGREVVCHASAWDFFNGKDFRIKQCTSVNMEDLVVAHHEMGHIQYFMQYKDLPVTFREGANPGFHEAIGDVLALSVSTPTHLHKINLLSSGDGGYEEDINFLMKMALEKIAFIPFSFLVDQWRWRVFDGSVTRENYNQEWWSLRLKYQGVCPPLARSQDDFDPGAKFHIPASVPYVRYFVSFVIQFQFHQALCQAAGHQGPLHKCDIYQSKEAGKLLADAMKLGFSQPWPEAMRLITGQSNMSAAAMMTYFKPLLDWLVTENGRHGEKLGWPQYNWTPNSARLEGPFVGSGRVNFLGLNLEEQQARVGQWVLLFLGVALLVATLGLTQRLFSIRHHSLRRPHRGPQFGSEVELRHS
Assay: Evaluation of ACE inhibitory activity (hippuryl-histidyl-leucine substrate, absorbance at 228 nm)
Assay type: biochemical
Details: peptide concentration at which ACE inhibitory effect was 50%; 37° C., 30 minutes, pH 8.3 borate buffer
Protocol: Solutions of each of these peptides at various concentrations were prepared, and measured for the ACE inhibitory activity in accordance with the method discussed below. The peptide concentration (μM) at which the ACE inhibitory effect was 50% was taken as IC50 value.
<Evaluation of ACE Inhibitory Activity>
ACE derived from bovine lung (manufactured by WAKO PURE CHEMICAL […], LTD.) was dissolved in a 0.1M borate buffer at pH 8.3 in an amount of 0.1 U, to obtain an ACE solution. […] Subsequently, the reaction was terminated by adding 250 μl of 1N hydrochloric acid (manufactured by WAKO PURE CHEMICAL […], LTD.). 1.7 ml of ethyl acetate (manufactured by WAKO PURE CHEMICAL […], LTD.) was then added, and stirred. 1.4 ml of the ethyl acetate layer was taken, placed in another tube, and evaporated at 120° C. for about 60 minutes to obtain a dried product. The dried product was dissolved in 1 ml of distilled water, and the absorbance at 228 nm of hippuric acid extracted with ethyl acetate was measured. As controls, absorbance was measured of a solution without the diluted solution and a solution without the diluted solution and the ACE solution. From the obtained absorbance, ACE inhibitory activity was calculated in accordance with the following formula. ACE inhibitory activity (%)=[(A−B)/A]×100 • A: (Absorbance of solution without diluted solution but with ACE solution)—(Absorbance of solution without diluted solution and ACE solution)
B: (Absorbance of solution with diluted solution and ACE solution)—(Absorbance of solution with diluted solution but without ACE solution)

Row | Compound | pIC50
1 | NC(=O)CC[C@H](N)C(=O)N1CCC[C@H]1C(=O)O [Gln-Pro] (H-Gln-Pro-OH) | 4.18
2 | NC(N)=NCCC[C@H](N)C(=O)N1CCC[C@H]1C(=O)O [Arg-Pro] (H-Arg-Pro-OH) | 3.56
3 | CC[C@H](C)[C@H](N)C(=O)N1CCC[C@H]1C(=O)O [Ile-Pro] (H-Ile-Pro-OH; N-terminus and C-terminus assumed) | 3.35
4 | CSCC[C@H](N)C(=O)N1CCC[C@H]1C(=O)O [Met-Pro] (H-Met-Pro-OH; N-terminus and C-terminus assumed) | 3.87
5 | N[C@@H](CCC(=O)O)C(=O)N1CCC[C@H]1C(=O)O [Glu-Pro] (H-Glu-Pro-OH; N-terminus and C-terminus assumed) | 3.76
